Data reported in ChEMBL document CHEMBL5465560, “Selectivity Literature for EUbOPEN Chemogenomic Library” (2024).
Each block holds one molecule with its values, some of them ahead of it.

Experiments:
[1] = biological target: T1, cGMP-dependent protein kinase 1 (Homo sapiens) (UniProt Q13976); test: Selectivity interaction (KinaseProfiler screening (Millipore)) EUB0000601a PRKG1; conditions: at 3 µM
T1 sequence (whole entry): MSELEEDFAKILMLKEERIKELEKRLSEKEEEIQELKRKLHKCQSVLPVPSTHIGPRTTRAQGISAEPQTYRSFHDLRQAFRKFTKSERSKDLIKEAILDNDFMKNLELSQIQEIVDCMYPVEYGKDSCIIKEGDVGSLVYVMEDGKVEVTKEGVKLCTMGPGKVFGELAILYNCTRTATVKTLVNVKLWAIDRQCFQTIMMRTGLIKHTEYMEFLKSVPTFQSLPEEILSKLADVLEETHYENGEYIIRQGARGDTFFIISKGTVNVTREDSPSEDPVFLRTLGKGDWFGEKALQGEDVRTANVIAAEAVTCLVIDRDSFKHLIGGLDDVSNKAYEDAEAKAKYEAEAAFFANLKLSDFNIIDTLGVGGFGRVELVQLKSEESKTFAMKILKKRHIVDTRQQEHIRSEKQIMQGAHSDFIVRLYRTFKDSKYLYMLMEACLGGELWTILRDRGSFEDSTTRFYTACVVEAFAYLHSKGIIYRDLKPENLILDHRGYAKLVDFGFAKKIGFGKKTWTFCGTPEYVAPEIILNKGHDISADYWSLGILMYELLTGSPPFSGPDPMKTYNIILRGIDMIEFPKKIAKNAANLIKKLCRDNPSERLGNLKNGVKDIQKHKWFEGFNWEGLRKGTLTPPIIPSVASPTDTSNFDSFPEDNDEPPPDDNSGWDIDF

[2] = biological target: T2, Mitogen-activated protein kinase kinase kinase 5 (Homo sapiens) (UniProt Q99683); conditions: at 10 µM
T2 sequence (whole entry): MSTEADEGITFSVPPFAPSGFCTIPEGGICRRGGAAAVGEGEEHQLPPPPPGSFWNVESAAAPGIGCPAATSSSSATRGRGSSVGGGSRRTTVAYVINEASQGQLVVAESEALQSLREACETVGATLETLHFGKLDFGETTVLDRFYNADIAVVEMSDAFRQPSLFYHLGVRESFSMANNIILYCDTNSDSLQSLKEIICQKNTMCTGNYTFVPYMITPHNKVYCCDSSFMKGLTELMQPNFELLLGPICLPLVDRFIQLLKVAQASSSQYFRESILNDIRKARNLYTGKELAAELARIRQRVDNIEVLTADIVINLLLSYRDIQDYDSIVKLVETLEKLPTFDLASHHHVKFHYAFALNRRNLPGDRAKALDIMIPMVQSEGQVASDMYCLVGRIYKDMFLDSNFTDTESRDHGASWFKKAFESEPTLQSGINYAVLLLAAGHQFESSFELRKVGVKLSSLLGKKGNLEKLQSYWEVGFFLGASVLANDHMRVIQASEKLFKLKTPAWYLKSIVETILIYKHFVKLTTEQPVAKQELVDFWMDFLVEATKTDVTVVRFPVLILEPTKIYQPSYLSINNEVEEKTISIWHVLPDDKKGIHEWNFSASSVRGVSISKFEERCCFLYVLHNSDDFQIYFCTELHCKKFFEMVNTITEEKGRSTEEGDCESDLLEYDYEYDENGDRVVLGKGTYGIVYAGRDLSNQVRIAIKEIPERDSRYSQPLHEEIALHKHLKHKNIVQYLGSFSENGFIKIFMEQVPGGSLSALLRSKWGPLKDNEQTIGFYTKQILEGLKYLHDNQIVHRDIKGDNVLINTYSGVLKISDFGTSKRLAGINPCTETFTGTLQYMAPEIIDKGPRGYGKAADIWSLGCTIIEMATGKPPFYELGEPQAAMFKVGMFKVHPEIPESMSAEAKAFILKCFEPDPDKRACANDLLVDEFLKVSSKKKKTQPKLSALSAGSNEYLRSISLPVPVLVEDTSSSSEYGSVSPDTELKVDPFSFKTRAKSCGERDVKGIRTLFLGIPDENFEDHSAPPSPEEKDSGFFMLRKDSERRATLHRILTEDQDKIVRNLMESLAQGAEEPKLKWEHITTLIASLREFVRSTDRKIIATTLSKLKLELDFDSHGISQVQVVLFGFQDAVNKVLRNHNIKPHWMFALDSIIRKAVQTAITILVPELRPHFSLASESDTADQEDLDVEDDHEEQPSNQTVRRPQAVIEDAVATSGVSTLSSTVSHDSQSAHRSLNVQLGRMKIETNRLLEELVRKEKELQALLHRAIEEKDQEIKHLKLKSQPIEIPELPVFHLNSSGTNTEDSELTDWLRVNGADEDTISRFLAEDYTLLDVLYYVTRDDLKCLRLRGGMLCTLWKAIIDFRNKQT

[3] = biological target: Mitogen-activated protein kinase kinase kinase 10 (Homo sapiens) (UniProt Q02779); test: Selectivity interaction (KinomeScan (DiscoverX)) EUB0000655a MAP3K10; conditions: at 10 µM
[4] = biological target: Leukocyte tyrosine kinase receptor (Homo sapiens, UniProt P29376); test: Selectivity interaction (KinomeScan (DiscoverX)) EUB0001079a LTK; conditions: at 1 µM
[5] = biological target: Serine/threonine-protein kinase Chk2 (Homo sapiens) (UniProt O96017); test: Selectivity interaction (KinomeScan (DiscoverX)) EUB0000595a CHEK2; conditions: at 10 µM
[6] = biological target: T3, Histone-lysine N-methyltransferase SUV39H1 (Homo sapiens) (UniProt O43463); conditions: at 10 µM
T3 sequence (whole entry): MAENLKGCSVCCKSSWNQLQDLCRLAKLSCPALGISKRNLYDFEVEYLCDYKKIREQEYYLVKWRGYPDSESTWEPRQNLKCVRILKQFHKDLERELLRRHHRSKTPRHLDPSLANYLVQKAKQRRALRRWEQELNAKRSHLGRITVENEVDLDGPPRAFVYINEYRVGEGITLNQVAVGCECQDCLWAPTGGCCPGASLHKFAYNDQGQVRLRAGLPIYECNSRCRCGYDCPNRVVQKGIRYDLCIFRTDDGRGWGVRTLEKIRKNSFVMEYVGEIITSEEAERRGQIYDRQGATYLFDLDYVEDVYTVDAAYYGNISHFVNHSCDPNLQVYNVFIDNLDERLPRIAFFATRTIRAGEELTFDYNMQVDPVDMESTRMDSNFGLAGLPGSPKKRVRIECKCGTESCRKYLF

[7] = biological target: Tyrosine-protein kinase CSK (Homo sapiens) (UniProt P41240); test: Selectivity interaction (ActivX KiNativ screen (kinase selectivity in THP-1 cell lysates)) EUB0000639a CSK; type: subcellular; conditions: lysate, at 1 µM
[8] = biological target: Phosphatidylinositol 4-phosphate 5-kinase type-1 alpha (Homo sapiens) (UniProt Q99755); test: Selectivity interaction (KinomeScan (DiscoverX)) EUB0000229b PIP5K1A; conditions: at 10 µM
[9] = biological target: Dual specificity protein kinase CLK3 (Homo sapiens, UniProt P49761); test: Selectivity interaction (KinomeScan (DiscoverX)) EUB0000666a CLK3; conditions: at 10 µM
[10] = biological target: Calcium/calmodulin-dependent protein kinase type 1 (Homo sapiens) (UniProt Q14012); test: Selectivity interaction (Adapta Assay) EUB0001632a CAMK1; conditions: at 10 µM
Calcium/calmodulin-dependent protein kinase type 1 (Homo sapiens), sequence (Q14012 whole entry, looked up): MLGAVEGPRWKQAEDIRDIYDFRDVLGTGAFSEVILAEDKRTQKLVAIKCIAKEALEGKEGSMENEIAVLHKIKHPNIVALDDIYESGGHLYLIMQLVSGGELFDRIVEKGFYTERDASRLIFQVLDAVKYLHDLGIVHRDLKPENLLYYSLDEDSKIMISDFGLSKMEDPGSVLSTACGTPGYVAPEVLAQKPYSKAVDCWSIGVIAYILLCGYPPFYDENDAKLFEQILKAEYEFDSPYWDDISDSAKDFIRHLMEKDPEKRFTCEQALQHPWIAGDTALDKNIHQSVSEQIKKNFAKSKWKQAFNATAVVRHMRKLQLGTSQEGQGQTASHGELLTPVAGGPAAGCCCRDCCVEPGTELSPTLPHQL

Leukocyte tyrosine kinase receptor, sequence (P29376 whole entry): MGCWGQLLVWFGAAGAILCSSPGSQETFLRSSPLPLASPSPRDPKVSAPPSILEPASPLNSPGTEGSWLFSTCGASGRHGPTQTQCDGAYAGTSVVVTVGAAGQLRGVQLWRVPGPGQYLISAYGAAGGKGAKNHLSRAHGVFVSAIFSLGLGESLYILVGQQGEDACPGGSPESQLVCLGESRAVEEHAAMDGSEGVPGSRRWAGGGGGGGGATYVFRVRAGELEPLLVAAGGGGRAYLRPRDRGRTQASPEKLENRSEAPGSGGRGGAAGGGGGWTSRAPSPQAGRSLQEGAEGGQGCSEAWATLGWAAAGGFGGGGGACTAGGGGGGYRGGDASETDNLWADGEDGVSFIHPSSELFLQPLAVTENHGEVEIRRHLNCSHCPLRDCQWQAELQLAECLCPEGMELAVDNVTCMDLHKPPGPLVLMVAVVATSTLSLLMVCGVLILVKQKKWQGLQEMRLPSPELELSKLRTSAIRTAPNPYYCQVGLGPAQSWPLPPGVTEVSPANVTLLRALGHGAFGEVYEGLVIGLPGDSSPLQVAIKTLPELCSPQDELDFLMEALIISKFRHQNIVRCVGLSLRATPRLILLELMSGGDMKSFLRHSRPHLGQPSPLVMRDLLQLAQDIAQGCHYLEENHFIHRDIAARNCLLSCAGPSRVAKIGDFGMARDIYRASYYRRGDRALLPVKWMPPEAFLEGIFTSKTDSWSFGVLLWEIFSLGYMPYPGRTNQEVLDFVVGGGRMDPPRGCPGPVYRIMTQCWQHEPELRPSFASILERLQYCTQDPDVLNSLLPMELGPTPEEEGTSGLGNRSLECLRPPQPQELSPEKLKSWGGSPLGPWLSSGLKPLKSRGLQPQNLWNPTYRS
Mitogen-activated protein kinase kinase kinase 10 (Homo sapiens), sequence (Q02779 whole entry, looked up): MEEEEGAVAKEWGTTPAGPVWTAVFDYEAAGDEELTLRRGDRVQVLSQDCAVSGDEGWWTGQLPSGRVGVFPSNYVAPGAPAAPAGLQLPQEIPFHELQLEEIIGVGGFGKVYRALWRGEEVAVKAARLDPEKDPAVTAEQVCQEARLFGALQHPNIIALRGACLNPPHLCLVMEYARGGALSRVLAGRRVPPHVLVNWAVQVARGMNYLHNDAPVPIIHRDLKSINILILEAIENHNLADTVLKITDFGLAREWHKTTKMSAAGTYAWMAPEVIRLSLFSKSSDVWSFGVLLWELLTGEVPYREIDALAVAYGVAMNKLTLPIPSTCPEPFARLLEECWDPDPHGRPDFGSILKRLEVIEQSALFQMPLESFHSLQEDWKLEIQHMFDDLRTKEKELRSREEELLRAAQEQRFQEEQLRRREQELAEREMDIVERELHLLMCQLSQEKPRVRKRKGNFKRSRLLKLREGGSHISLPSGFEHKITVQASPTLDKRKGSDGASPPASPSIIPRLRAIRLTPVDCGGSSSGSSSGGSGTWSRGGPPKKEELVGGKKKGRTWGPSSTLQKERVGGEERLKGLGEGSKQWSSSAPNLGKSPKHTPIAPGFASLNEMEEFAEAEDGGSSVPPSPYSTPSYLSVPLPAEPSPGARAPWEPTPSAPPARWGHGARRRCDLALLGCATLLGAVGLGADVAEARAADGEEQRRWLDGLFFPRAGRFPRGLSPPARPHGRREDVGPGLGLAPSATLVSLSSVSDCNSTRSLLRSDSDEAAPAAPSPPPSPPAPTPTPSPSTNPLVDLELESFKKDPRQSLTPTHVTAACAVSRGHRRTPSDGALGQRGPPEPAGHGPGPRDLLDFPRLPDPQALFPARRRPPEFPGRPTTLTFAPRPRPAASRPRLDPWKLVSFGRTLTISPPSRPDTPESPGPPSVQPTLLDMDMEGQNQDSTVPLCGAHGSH
Tyrosine-protein kinase CSK (Homo sapiens), sequence (P41240 2-450 limits assumed): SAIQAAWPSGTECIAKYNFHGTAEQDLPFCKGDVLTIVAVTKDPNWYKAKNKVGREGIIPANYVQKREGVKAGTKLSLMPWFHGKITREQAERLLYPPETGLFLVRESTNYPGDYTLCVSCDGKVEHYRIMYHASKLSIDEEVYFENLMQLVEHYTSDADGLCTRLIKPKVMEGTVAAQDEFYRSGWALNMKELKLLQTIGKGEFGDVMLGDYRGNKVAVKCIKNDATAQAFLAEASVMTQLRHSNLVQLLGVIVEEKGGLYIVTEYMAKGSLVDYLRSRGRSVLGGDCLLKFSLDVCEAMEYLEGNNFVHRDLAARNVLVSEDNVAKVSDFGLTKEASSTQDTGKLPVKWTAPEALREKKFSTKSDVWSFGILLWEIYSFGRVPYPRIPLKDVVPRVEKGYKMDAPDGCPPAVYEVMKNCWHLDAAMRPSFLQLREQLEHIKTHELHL
Dual specificity protein kinase CLK3, sequence (P49761 whole entry, looked up): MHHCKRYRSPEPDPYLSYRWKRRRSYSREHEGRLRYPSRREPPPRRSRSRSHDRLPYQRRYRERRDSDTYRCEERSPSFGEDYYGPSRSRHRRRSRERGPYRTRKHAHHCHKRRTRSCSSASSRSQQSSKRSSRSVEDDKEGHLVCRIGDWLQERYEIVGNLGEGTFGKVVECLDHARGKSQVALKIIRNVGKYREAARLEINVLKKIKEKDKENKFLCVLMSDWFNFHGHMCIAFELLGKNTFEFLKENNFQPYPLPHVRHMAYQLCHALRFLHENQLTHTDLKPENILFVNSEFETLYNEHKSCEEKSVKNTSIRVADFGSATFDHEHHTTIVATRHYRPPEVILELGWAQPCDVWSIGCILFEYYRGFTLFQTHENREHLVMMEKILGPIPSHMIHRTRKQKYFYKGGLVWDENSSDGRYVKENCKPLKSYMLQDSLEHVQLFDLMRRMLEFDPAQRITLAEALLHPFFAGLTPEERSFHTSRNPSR
Phosphatidylinositol 4-phosphate 5-kinase type-1 alpha (Homo sapiens), sequence (Q99755 whole entry): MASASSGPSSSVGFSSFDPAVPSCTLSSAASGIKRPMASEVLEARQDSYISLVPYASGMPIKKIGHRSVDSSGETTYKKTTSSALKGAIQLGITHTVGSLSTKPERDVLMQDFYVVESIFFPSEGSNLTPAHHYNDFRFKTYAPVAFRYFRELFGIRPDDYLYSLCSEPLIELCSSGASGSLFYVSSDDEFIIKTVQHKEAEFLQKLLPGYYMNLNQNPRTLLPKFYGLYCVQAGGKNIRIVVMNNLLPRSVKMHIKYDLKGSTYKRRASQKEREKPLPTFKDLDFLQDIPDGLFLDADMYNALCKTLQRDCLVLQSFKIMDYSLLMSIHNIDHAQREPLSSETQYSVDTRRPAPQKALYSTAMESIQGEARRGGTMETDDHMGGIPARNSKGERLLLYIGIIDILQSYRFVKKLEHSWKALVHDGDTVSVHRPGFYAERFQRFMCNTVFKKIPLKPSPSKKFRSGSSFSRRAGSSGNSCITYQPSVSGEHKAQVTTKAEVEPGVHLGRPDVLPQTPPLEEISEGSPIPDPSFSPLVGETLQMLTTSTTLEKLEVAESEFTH
Serine/threonine-protein kinase Chk2 (Homo sapiens), sequence (O96017 whole entry): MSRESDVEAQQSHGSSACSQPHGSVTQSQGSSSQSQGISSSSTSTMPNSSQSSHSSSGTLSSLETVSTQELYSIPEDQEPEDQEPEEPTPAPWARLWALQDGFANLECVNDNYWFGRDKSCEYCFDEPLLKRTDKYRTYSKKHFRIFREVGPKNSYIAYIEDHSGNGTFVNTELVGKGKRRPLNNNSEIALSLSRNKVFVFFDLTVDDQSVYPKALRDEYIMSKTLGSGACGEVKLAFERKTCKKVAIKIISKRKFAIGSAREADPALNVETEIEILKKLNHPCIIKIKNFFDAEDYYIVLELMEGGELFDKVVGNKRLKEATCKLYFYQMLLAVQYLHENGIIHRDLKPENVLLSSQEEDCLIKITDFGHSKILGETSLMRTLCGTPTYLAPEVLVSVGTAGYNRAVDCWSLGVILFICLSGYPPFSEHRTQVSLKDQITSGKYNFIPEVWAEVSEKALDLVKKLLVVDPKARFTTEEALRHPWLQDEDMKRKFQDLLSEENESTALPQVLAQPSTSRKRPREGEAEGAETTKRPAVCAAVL

Compound: CN(C)CCOc1ccc(-c2nc(-c3ccncc3)c(-c3ccc4c(c3)CC/C4=N\O)[nH]2)cc1
% of control [3]: 92%

Compound: Nc1cnc(N2CCc3cc(S(=O)(=O)Nc4c(F)cc(Cl)cc4F)cc(N4CCCC4=O)c32)nc1 [TP-020n]
% of control [4]: 100%

Compound: COCC(=O)NC/C=C/c1ccc2ncnc(Nc3ccc(Oc4ccc(C)nc4)c(C)c3)c2c1 [CP-724714]
% of control [5]: 55%

Compound: COc1cc(N(C)c2ccnc3ccc(C(F)(F)F)cc23)cc(OC)c1OC
% binding [8]: 76%

Compound: O=C(NOC[C@H](O)CO)c1ccc(F)c(F)c1Nc1ccc(I)cc1F
% of control [9]: 100%

Other lines, results leading:

% of inhibition [1]: 41%
Compound: CCc1cc(Nc2nccc(-c3c(-c4ccc(OC)c(C(=O)Nc5c(F)cccc5F)c4)nc4ccccn34)n2)c(OC)cc1N1CCC(N2CCN(S(C)(=O)=O)CC2)CC1

% of control [2]: 100%
Compound: CCN(CC)CCCCNc1ncc2cc(-c3cc(OC)cc(OC)c3)c(NC(=O)NC(C)(C)C)nc2n1

% activity [6]: > 90%
Compound: CNCCN1CCC(c2cc(CN(C)C(=O)c3cccc(Oc4ccccc4)c3)ccn2)CC1

% of inhibition [7]: 0.5%
Compound: CC[C@@H]1[C@H](F)C(=O)N[C@@H]1COc1nccc2cc(C(N)=O)c(OC)cc12 [ZIMLOVISERTIB]

% of inhibition [10]: 18.6%
Compound: Cn1cc(-n2cnc3c(NCc4nc5cc(Cl)c(Cl)cc5[nH]4)nc(N4CCOCC4)nc32)cn1
